Experimental data taken from article PMC6957243 (Bioorganic & medicinal chemistry letters, 2014).

Key:
[1] = target: T1, rat TRPV1 heterologously expressed in Chinese hamster ovary (CHO) cells (Rattus norvegicus, UniProt O35433); test: binding competition assay with [3H]RTX; conditions: respectively; for increase in binding affinity: 19 and 20 compared to (R)-5a and (S)-5a; for increases in binding affinity: 24 and 28 compared to 5b and 5c
[2] = target: T1, rat TRPV1 heterologously expressed in Chinese hamster ovary (CHO) cells; test: functional 45Ca2+ uptake assay, antagonism of capsaicin; format: cell-based; conditions: 24 and 28 compared to 5b and 5c, respectively

T1 sequence (O35433 whole entry): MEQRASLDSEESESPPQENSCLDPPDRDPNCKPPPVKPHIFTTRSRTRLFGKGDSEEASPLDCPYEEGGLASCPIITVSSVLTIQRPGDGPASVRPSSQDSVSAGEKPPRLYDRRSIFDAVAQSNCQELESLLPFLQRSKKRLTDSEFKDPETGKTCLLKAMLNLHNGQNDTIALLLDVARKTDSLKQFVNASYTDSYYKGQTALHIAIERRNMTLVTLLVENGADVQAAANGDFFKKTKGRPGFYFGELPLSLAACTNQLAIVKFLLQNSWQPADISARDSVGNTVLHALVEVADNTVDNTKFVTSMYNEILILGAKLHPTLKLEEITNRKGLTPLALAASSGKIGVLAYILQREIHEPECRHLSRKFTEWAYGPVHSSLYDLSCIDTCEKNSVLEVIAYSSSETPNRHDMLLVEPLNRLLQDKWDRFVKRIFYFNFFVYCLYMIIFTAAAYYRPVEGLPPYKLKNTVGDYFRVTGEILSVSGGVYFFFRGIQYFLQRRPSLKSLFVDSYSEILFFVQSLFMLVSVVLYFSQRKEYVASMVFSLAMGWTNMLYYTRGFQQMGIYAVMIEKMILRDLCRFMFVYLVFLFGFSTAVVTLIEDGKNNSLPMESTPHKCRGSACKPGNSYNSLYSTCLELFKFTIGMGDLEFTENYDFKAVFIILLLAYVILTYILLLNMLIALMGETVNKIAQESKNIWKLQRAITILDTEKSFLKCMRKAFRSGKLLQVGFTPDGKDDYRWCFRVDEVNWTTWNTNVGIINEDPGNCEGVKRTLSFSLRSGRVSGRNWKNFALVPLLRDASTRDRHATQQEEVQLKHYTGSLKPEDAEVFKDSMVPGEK

C[C@@H](NC(=S)NC[C@H](COC(=O)C(C)(C)C)Cc1ccccc1)c1ccc(NS(C)(=O)=O)cc1 [compound 19]
increase in binding affinity [1]: ~10 fold

C[C@@H](NC(=S)NC[C@@H](COC(=O)C(C)(C)C)Cc1ccccc1)c1ccc(NS(C)(=O)=O)cc1 [compound 20]
increase in binding affinity [1]: ~10 fold

Cc1ccc(CC(CNC(=S)N[C@H](C)c2ccc(NS(C)(=O)=O)cc2)COC(=O)C(C)(C)C)cc1C (stereo partly drawn) [compound 24]
increases in antagonism [2]: 10 fold | increases in binding affinity [1]: 5 fold

C[C@@H](NC(=S)NCC(COC(=O)C(C)(C)C)Cc1ccc(C(C)(C)C)cc1)c1ccc(NS(C)(=O)=O)cc1 (stereo partly drawn) [compound 28]
increases in antagonism [2]: 4 fold | increases in binding affinity [1]: 6 fold
